From US10392368B2, “Pyrazolo and triazolo bicyclic compounds as JAK kinase inhibitors” (THERAVANCE BIOPHARMA R&D IP, LLC, priority 2017, dated 2019)
Read-outs that look alike come from different tables or passages of the source.

How the values were obtained:
[1] = tested on: IL-2 stimulated pSTAT5 in Tall-1 T cells; experiment: Cellular JAK3 potency assay: inhibition of IL-2 stimulated pSTAT5 in Tall-1 T cells; assay type: cell-based, human; details: for IC50: Homo sapiens, read-out: Tall-1 (pIC50) (converted)
Method in brief: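 In human Tall-1 T cells, IL-2 (300 ng/ml final, 30 min) drives STAT5 phosphorylation after a 1 h compound pretreatment. Lysates are assayed for pSTAT5 by AlphaLisa, and IC50 derived from signal versus concentration is expressed as pIC50.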

JAK2 = molecular target: T1, JAK2 (Homo sapiens, UniProt O60674); experiment: Biochemical JAK2 kinase assay (LanthaScreen); details: for Ki: read-out: JAK 2 (pKi) (converted)
T1 construct: GST; purchased Life Technologies
Method in brief: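 GST-tagged recombinant JAK2 pre-incubated 1 h at ambient temperature with compound and GFP-STAT1 peptide in HEPES pH 7.5/MgCl2 buffer, then ATP added for a 1 h reaction with 1% DMSO. TR-FRET read after EDTA and Tb-anti-pSTAT1 (pTyr701) addition; IC50 from 4-parameter fit, converted to pKi by Cheng-Prusoff.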

JAK1 = molecular target: T2, JAK1 (Homo sapiens, UniProt P23458); experiment: Biochemical JAK1 kinase assay (LanthaScreen); details: for Ki: read-out: JAK 1 (pKi) (converted)
T2 construct: GST; purchased Life Technologies
Method in brief: (§1)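 Values are pKi, calculated by Cheng-Prusoff from IC50 obtained by robust 4-parameter fitting of percent inhibition. The kinase reaction used GFP-STAT1 peptide in HEPES pH 7.5 buffer with MgCl2, EGTA and Brij-35, ATP-initiated after compound pre-incubation, 1 h at ambient temperature.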

JAK3 = molecular target: T3, JAK3 (Homo sapiens, UniProt P52333); experiment: Biochemical JAK3 kinase assay (LanthaScreen); parameters: GST; purchased Life Technologies; details: for Ki: read-out: JAK 3 (pKi) (converted)
T3 sequence (P52333 1-1124): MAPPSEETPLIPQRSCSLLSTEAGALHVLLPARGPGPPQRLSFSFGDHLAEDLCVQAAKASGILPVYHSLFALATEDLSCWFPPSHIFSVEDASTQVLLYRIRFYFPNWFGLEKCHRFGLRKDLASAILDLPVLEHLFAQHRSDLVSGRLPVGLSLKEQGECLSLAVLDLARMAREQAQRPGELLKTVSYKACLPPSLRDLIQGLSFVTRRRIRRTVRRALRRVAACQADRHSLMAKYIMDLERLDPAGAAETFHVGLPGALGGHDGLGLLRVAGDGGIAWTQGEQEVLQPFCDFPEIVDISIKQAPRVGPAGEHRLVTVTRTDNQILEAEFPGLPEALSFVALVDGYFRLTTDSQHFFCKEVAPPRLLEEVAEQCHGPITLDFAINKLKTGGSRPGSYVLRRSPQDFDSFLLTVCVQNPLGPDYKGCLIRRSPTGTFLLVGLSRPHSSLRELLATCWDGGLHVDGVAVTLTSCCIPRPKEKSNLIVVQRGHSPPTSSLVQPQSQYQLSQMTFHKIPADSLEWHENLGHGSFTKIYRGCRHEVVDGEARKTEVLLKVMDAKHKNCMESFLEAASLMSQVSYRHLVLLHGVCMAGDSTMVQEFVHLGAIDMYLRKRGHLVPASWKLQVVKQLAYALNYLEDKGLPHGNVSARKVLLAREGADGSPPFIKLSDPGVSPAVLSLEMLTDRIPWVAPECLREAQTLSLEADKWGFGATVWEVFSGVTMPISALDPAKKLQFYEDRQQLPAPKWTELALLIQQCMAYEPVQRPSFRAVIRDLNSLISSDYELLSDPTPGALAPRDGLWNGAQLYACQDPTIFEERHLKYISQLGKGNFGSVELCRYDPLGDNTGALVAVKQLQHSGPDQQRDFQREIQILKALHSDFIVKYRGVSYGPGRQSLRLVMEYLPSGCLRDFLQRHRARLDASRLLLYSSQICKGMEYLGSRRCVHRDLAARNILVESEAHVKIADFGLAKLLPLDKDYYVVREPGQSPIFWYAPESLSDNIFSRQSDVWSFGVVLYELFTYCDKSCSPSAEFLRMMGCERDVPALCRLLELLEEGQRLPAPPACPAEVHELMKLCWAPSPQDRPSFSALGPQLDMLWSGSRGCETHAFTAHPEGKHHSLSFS
Method in brief: as §1

Tyk2 = molecular target: T4, Tyk2 (Homo sapiens, UniProt P29597); experiment: Biochemical Tyk2 kinase assay (LanthaScreen); details: for Ki: read-out: Tyk 2 (pKi) (converted)
T4 construct: GST; purchased Life Technologies
Method in brief: as §1

[2] = TALL-1, IL-2 stimulated pSTAT5 in Tall-1 T cells
[3] = selectivity: difference of pKi JAK3 and pKi JAK1
[4] = IL-2 stimulated pSTAT5, Tall-1 T cells
[5] = selectivity JAK3 over JAK1, difference of pKi
[6] = IL-2 stimulated pSTAT5 in Tall-1 T cells
[7] = TALL-1, IL-2 stimulated pSTAT5, Tall-1 T cells

T4 sequence (P29597 whole entry): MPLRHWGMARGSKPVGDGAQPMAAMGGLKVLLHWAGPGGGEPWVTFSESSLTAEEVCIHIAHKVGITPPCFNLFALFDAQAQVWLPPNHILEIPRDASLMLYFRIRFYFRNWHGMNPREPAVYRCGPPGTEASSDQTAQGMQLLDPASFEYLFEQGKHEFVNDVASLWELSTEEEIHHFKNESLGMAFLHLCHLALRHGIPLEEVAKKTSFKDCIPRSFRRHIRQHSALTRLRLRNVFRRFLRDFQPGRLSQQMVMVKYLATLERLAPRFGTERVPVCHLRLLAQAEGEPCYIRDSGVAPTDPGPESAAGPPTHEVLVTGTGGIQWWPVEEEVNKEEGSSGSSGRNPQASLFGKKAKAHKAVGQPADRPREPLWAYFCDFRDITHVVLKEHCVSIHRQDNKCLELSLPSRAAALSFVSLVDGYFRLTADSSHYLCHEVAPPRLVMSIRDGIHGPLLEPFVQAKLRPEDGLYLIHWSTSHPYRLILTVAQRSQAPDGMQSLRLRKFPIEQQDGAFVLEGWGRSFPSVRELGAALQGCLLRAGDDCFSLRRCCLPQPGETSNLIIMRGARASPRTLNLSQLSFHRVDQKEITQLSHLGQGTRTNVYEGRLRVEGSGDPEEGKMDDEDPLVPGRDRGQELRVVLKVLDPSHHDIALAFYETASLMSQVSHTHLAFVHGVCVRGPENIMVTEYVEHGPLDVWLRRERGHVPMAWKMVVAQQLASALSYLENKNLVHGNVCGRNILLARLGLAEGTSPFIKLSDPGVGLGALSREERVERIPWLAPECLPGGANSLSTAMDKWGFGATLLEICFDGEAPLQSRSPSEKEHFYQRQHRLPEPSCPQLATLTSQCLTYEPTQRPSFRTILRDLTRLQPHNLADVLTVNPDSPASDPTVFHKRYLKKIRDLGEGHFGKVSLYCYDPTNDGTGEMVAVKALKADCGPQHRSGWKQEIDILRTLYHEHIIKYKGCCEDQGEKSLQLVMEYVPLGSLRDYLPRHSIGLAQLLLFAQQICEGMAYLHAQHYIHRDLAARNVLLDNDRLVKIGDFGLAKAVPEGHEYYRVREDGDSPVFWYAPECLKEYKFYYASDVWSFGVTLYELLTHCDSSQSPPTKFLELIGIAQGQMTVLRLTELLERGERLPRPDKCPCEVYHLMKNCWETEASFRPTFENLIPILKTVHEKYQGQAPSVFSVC
T2 sequence (P23458 whole entry): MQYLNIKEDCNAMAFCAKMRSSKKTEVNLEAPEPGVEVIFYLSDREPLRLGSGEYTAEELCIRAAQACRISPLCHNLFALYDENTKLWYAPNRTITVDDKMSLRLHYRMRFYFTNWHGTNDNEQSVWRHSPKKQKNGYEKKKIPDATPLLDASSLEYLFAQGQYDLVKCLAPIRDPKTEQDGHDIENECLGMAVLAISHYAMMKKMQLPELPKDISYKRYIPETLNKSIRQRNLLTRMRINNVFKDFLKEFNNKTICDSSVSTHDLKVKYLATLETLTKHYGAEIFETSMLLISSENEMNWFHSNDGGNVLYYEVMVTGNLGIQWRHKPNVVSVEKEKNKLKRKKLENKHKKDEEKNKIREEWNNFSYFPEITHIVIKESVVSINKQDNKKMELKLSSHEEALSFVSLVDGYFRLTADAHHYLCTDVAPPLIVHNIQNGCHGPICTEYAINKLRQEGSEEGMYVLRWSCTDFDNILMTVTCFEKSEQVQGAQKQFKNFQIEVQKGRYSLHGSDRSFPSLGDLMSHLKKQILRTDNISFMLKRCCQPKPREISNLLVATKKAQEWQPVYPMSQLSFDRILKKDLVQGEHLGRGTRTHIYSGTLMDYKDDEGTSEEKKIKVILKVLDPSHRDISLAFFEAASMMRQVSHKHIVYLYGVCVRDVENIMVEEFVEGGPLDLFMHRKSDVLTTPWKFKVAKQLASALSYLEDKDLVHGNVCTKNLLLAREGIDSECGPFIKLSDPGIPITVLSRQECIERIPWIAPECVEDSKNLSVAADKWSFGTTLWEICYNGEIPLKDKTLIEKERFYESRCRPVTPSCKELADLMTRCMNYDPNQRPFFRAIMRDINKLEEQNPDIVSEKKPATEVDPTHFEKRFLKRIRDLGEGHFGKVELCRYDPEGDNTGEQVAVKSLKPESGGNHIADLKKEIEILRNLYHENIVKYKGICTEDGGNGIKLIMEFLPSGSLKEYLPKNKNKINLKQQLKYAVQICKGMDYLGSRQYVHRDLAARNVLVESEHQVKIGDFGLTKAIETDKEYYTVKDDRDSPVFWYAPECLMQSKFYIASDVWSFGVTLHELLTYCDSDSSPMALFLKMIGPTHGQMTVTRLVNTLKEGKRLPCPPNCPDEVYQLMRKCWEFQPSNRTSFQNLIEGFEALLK
T1 sequence (O60674 whole entry): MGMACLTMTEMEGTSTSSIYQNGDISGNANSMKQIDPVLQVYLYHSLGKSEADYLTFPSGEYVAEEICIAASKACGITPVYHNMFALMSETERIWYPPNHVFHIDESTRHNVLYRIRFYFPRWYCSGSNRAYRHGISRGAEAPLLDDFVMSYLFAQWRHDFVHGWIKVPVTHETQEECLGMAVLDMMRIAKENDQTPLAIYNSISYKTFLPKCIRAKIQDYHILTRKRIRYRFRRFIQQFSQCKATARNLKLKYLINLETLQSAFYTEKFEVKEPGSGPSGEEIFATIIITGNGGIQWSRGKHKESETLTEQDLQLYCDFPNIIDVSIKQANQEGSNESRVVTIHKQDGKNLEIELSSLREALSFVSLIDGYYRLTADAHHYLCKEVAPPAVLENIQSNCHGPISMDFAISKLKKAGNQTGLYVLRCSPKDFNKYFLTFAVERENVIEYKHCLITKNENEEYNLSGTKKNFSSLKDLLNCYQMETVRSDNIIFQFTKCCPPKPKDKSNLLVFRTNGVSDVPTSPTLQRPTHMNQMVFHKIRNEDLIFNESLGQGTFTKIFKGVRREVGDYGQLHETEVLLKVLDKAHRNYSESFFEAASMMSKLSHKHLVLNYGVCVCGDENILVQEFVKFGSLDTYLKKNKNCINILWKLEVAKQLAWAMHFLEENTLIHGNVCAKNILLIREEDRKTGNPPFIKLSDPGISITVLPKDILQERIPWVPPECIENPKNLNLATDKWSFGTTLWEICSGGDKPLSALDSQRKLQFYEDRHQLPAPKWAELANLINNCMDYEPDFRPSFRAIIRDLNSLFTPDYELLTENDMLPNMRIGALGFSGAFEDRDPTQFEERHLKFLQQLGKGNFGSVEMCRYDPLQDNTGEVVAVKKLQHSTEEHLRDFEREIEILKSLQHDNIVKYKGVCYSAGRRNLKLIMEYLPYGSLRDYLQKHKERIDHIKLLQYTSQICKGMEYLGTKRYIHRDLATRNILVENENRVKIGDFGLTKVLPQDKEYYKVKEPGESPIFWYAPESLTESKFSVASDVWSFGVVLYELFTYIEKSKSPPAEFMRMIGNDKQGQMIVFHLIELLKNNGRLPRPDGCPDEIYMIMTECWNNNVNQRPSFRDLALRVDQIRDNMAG

CC(C)CN(C)C/C=C/C(=O)N1CC(COc2cc(-c3ccc(O)cc3)cc3[nH]ncc23)C1 [Compound 3-118]
IC50 [1, 2]: < 31.6 nM | Ki (JAK2): > 100 nM | Ki (JAK1): > 100 nM | Ki (JAK3): 0.1 to 1 nM | JAK3 (pKi)-JAK1 (pKi) (JAK3; [3]): A (a value of 3 or above) | Ki (Tyk2): > 100 nM

C=CC(=O)N1CC(F)(COc2cc(-c3ccc(O)c(F)c3)cc3[nH]ncc23)C1 [Compound 3-41]
IC50 [1, 2]: < 31.6 nM | Ki (JAK2): 1 to 10 nM | Ki (JAK1): 0.1 to 1 nM | Ki (JAK3): 0.1 to 1 nM | JAK3 (pKi)-JAK1 (pKi) (JAK3; [3]): B (a value of 2.3 to 3) | Ki (Tyk2): > 100 nM

C=CC(=O)N1CCC(N(C)c2cc(-c3ccc(O)c(F)c3)cc3[nH]ncc23)CC1 [Compound 7-10]
Tall-1 (pIC50) [1, 4]: B (a pIC50 value between 6.7 (included) and 7.5 (IC50 between 200 nM and 32 nM)) | JAK 2 (pKi) (JAK2): D (a pKi value between 7 and 8 (Ki between 100 nM and 10 nM)) | JAK 1 (pKi) (JAK1): E (a pKi value of 7 or below (Ki of 100 nM or above)) | JAK 3 (pKi) (JAK3): B (a pKi value between 9 and 10 (Ki between 1 nM and 0.1 nM)) | JAK3 (pKi)-JAK1 (pKi) (JAK3; [5]): A (a value of 3 or above) | Tyk 2 (pKi) (Tyk2): E (a pKi value of 7 or below (Ki of 100 nM or above))

CN(C)C/C=C/C(=O)N1CC(Oc2cc(-c3ccc(O)c(Cl)c3)cc3[nH]ncc23)(C(F)F)C1 [Compound 5-16]
Tall-1 (pIC50) [1, 6]: A (a pIC50 value≥7.5 (IC50≤32 nM)) | JAK 2 (pKi) (JAK2): 6 | JAK 1 (pKi) (JAK1): E (a pKi value of 7 or below (Ki of 100 nM or above)) | JAK 3 (pKi) (JAK3): A (a pKi value≥10 (Ki≤0.1 nM)) | JAK3 (pKi)-JAK1 (pKi) (JAK3; [3]): A (a value of 3 or above) | Tyk 2 (pKi) (Tyk2): E (a pKi value of 7 or below (Ki of 100 nM or above))

C=CC(=O)N1CC(C#N)(COc2nc(-c3ccc(O)c(Cl)c3)nc3[nH]ncc23)C1 [Compound 3-109]
IC50 [1, 2]: 31.6 to 200 nM | Ki (JAK2): > 100 nM | Ki (JAK1): > 100 nM | Ki (JAK3): 0.1 to 1 nM | JAK3 (pKi)-JAK1 (pKi) (JAK3; [3]): A (a value of 3 or above) | Ki (Tyk2): > 100 nM

C=CC(=O)N1CC(COc2cc(-c3ccc(O)cc3)cc3[nH]ncc23)C1 [Compound 3-1]
IC50 [1, 2]: < 31.6 nM | Ki (JAK2): > 100 nM | Ki (JAK1): > 100 nM | Ki (JAK3): 0.1 to 1 nM | JAK3 (pKi)-JAK1 (pKi) (JAK3; [3]): A (a value of 3 or above) | Ki (Tyk2): > 100 nM

CN(C)C/C=C/C(=O)N1CC(Oc2cc(-c3ccc(O)c(F)c3)cc3[nH]ncc23)C1 [Compound 5-5]
Tall-1 (pIC50) [1, 6]: B (a pIC50 value between 6.7 (included) and 7.5 (IC50 between 200 nM and 32 nM)) | JAK 2 (pKi) (JAK2): D (a pKi value between 7 and 8 (Ki between 100 nM and 10 nM)) | JAK 1 (pKi) (JAK1): E (a pKi value of 7 or below (Ki of 100 nM or above)) | JAK 3 (pKi) (JAK3): A (a pKi value≥10 (Ki≤0.1 nM)) | JAK3 (pKi)-JAK1 (pKi) (JAK3; [3]): A (a value of 3 or above) | Tyk 2 (pKi) (Tyk2): E (a pKi value of 7 or below (Ki of 100 nM or above))

C=CC(=O)N1CC(C)(COc2cc(-c3ccc(O)c(F)c3)nc3[nH]ncc23)C1 [Compound 3-98]
IC50 [1, 2]: 31.6 to 200 nM | Ki (JAK2): > 100 nM | Ki (JAK1): > 100 nM | Ki (JAK3): < 0.1 nM | JAK3 (pKi)-JAK1 (pKi) (JAK3; [3]): A (a value of 3 or above) | Ki (Tyk2): > 100 nM

CN(C)C/C=C/C(=O)N1CCC(C)(Oc2cc(-c3ccc(O)c(F)c3)cc3[nH]ncc23)CC1 [Compound 6-6]
IC50 [1, 7]: < 31.6 nM | Ki (JAK2): 10 to 100 nM | Ki (JAK1): > 100 nM | Ki (JAK3): 0.1 to 1 nM | JAK3 (pKi)-JAK1 (pKi) (JAK3; [5]): A (a value of 3 or above) | Ki (Tyk2): > 100 nM

C=CC(=O)N1CC(CC)(COc2nc(-c3ccc(O)c(F)c3)nc3[nH]ncc23)C1 [Compound 3-67]
IC50 [1, 2]: 31.6 to 200 nM | Ki (JAK2): > 100 nM | Ki (JAK1): > 100 nM | Ki (JAK3): 0.1 to 1 nM | JAK3 (pKi)-JAK1 (pKi) (JAK3; [3]): A (a value of 3 or above) | Ki (Tyk2): > 100 nM

C=CC(=O)N1CC(Oc2cc(-c3ccc(O)c(Cl)c3)cc3[nH]ncc23)(C(F)F)C1 [Compound 5-21]
Tall-1 (pIC50) [1, 4]: A (a pIC50 value≥7.5 (IC50≤32 nM)) | JAK 2 (pKi) (JAK2): E (a pKi value of 7 or below (Ki of 100 nM or above)) | JAK 1 (pKi) (JAK1): E (a pKi value of 7 or below (Ki of 100 nM or above)) | JAK 3 (pKi) (JAK3): B (a pKi value between 9 and 10 (Ki between 1 nM and 0.1 nM)) | JAK3 (pKi)-JAK1 (pKi) (JAK3; [5]): A (a value of 3 or above) | Tyk 2 (pKi) (Tyk2): E (a pKi value of 7 or below (Ki of 100 nM or above))

CN(C)C/C=C/C(=O)N1CC(CSc2cc(-c3ccc(O)cc3)cc3[nH]ncc23)C1 [Compound 13-4]
Tall-1 (pIC50) [1, 4]: B (a pIC50 value between 6.7 (included) and 7.5 (IC50 between 200 nM and 32 nM)) | JAK 2 (pKi) (JAK2): D (a pKi value between 7 and 8 (Ki between 100 nM and 10 nM)) | JAK 1 (pKi) (JAK1): E (a pKi value of 7 or below (Ki of 100 nM or above)) | JAK 3 (pKi) (JAK3): A (a pKi value≥10 (Ki≤0.1 nM)) | JAK3 (pKi)-JAK1 (pKi) (JAK3; [5]): A (a value of 3 or above) | Tyk 2 (pKi) (Tyk2): E (a pKi value of 7 or below (Ki of 100 nM or above))

CN(C)C/C=C/C(=O)N1CC(CN(C)c2cc(-c3ccc(O)cc3)cc3[nH]ncc23)C1 [Compound 11, (E)-4-(dimethylamino)-1-(3-(((6-(4-hydroxyphenyl)-1H-indazol-4-yl)(methyl)amino)methyl)azetidin-1-yl)but-2-en-1-one]
IC50 [1, 2]: 31.6 to 200 nM | Ki (JAK2): > 100 nM | Ki (JAK1): > 100 nM | Ki (JAK3): 0.1 to 1 nM | JAK3 (pKi)-JAK1 (pKi) (JAK3; [3]): A (a value of 3 or above) | Ki (Tyk2): > 100 nM

C=CC(=O)N1CC(CN(C)c2cc(-c3ccc(O)cc3)cc3[nH]ncc23)C1 [Compound 4-1]
Tall-1 (pIC50) [1, 6]: B (a pIC50 value between 6.7 (included) and 7.5 (IC50 between 200 nM and 32 nM)) | JAK 2 (pKi) (JAK2): E (a pKi value of 7 or below (Ki of 100 nM or above)) | JAK 1 (pKi) (JAK1): E (a pKi value of 7 or below (Ki of 100 nM or above)) | JAK 3 (pKi) (JAK3): B (a pKi value between 9 and 10 (Ki between 1 nM and 0.1 nM)) | JAK3 (pKi)-JAK1 (pKi) (JAK3; [3]): A (a value of 3 or above) | Tyk 2 (pKi) (Tyk2): E (a pKi value of 7 or below (Ki of 100 nM or above))

C=CC(=O)N1CCC(Oc2nc(-c3ccc(O)c(F)c3)cc3[nH]ncc23)CC1 [Compound 6-16]
IC50 [1, 7]: 31.6 to 200 nM | Ki (JAK2): 10 to 100 nM | Ki (JAK1): > 100 nM | Ki (JAK3): 0.1 to 1 nM | JAK3 (pKi)-JAK1 (pKi) (JAK3; [5]): A (a value of 3 or above) | Ki (Tyk2): > 100 nM
